Assay: In man pharmacokinetics of oral NO-diclofenac sachets (plasma, LC/MS/MS)
Format: in vivo
Conditions: 75, 100 and 150 mg sachets of example 2, oral; 0.25-32 h
Method: In man evaluation of pharmacokinetic and pharmacodynamic parameters of the oral NO-diclofenac formulation described in example 2 (sachets).
Six healthy fastened patients were administered with 75, 100 and 150 mg NO-Diclofenac sachets formulated as described in example 2.
In order to evaluate the pharmacokinetic parameters, blood samples were taken at 0.25, 0.5, 1, 2, 3, 4, 5, 6, 8, 10, 12, 16, 24 and 32 hours after administration of the pharmaceutical formulation. The active ingredient NO-diclofenac and its metabolites diclofenac and the hydroxyderivative 4-OH-diclofenac were dosed in plasma by a LC/MS/MS method, previously validated. NO-diclofenac was not found in the samples at any dosage. The pharmacokinetic parameters of plasma levels obtained for diclofenac (D) and the 4-hydroxydiclofenac (40H-Diclofenac, 40H-D) are reported in Table 2.

NO-diclofenac (unchanged) in plasma samples: not found
Structure (SMILES): O=C(Cc1ccccc1Nc1c(Cl)cccc1Cl)OCCCCO[N+](=O)[O-] [NO-diclofenac, 2-[(2,6-dichlorophenyl)amino]benzeneacetic acid 4-(nitrooxy)butyl ester]
